Consider 21 compounds from US4336400A, “3-(Hydroxy or hydroxymethyl)-4-hydroxy-alpha(aminomethyl)benzyl alcohols and methods of use” (Sterling Drug Inc., priority 1978, dated 1982).

In data set [1] the test system is guinea pig bronchioles constricted by carbachol. Kind of data set: Bronchodilator Test Method II: in vitro, perfused guinea pig lung, bronchioles constricted by carbachol. The note with it: for Bronchodilator Action, Duration (min) Mean: dose mcg(base) given. As to the method:
Bronchodilator activity was tested in anesthetized dogs (Test Method I) and in vitro on the perfused guinea pig lung (Test Method II), using the following pharmacological test procedures:
In this method bronchodilator activity in vitro was determined by testing the effect of graded doses of the test compounds on guinea pig bronchioles constricted by carbachol, using the technique reported by Sollman and von Oettingen, Proc. Soc. Exp. Biol. Med., 25, 692 (1928) as modified by Tainter, Pedden, and James, J. Pharm. Exp. Ther., 51, 371 (1934) and by Luduena, von Euler, Tuller, and Lands, Arch. Intern. Pharmacol., III, 392 (1957).

Data set [2] in a line: Solubility, pH of solution and precipitation. It is filed as physicochemical. The note with it: for precipitation when the pH was adjusted to 7.0 with N/10 sodium hydroxide: 1 percent aqueous solution, pH 7.0; for precipitation on dilution of a 1 percent dimethyl sulfoxide solution with three volumes of water: 1 percent solution in dimethyl sulfoxide; for precipitation on dilution of a 1 percent glycerol formal solution with three volumes of water: 1 percent solution in glycerol formal.

The next data set deals with diastolic blood pressure. As to the kind of experiment: Effect on diastolic blood pressure in the anesthetized dog, intravenous. It is filed as in vivo. The note with it: i.v., dose (salt) mcg/kg. As to the method: Injections were repeated at 20-30 minutes.
Cardiovascular Studies The effect of a rapid intravenous injection on the heart rate was conducted in anesthetized dogs under normal respiration. A few open-chest dogs were also tested. Increase in heart rate was measured by using an electrocardiograph attached to the dog. Readings were taken every 0.5-1 minutes for the first 10 minutes and every 2-5 minutes thereafter until recovery. In some cases, several doses and more than one compound were tested alternately in the same dog. The blood pressure effect was simultaneously recorded.

The subject of another data set is normal airway pressure. As to the kind of experiment: Control bronchoconstriction in anesthetized dog. The note with it: i.v., carbachol 4 to 6 micrograms per kilogram, histamine diphosphate 35 to 45 micrograms per kilogram, majority of test animals. It is filed as in vivo. As to the method:
Test Method I: Male and female dogs weighing 9-18 kg. each were anesthetized with pentobarbital sodium (30 mg./kg. i.v.). Each animal, with thorax opened at the mid-sternum, was maintained under artificial ventilation using a constant volume pump (250 ml./stroke; ten to twelve strokes per minute) attached to the tracheal cannula. The flow of air was controlled by a glass or plastic valve which closed and opened respectively on inflow and outflow of the air to and from the tracheal cannula. Bronchoconstriction and/or bronchodilatation were measured from changes in the basal airway pressure reflected by a transducer attached to the sidearm of the cannula relayed to a polygraph.
Control bronchoconstrictions were induced by intravenous injections of carbachol (choline chloride carbamate) in doses ranging from 4 to 6 micrograms per kilogram or histamine diphosphate in doses ranging from 35 to 45 micrograms per kilogram.

Values joined by “and” are separate entries in the source; they are usually repeats but may differ in a detail not shown here. Equal values may be shown once. Where a name gives a salt, the structure may show the parent alone.

As for `CCCC(=O)Oc1ccc(C(O)CNC(C)(C)C)cc1OC(=O)CCC.Cl` (stereo not drawn) [Example 1, 3,4-bis(butyryloxy)-alpha-(tert-butylaminomethyl)-benzyl alcohol hydrochloride], in data set [1] (Doryl conc. 1:5 million), the ED50 was 0.23 mcg(base) and the “Bronchodilator Action, Duration (min) Mean” value (“Bronchodilator Action” for short) came out at 9 ± 1.0 min. Besides, the “precipitation when the pH was adjusted to 7.0 with N/10 sodium hydroxide” value in data set [2] was “a precipitate formed”.
With `CC(C)C(=O)Oc1ccc(C(O)CNC(C)(C)C)cc1OC(=O)C(C)C.Cl` (stereo not drawn) [Example 2, 3,4-bis(isobutyryloxy)-alpha-(tert-butylaminomethyl)-benzyl alcohol hydrochloride], in data set [1] (Doryl conc. 1:5 million), the ED50 is given as 0.28 mcg(base) and the “Bronchodilator Action” value is given as 9 ± 1.1 min.
With `CC(C)CC(=O)Oc1ccc(C(O)CNC(C)(C)C)cc1OC(=O)CC(C)C.Cl` (stereo not drawn) [Example 3, 3,4-bis(isovaleryloxy)-alpha-(tert-butylaminomethyl)benzyl alcohol hydrochloride], in data set [1] (Doryl conc. 1:5 million), the ED50 is 0.6 mcg(base) and the “Bronchodilator Action” value was determined as 18 ± 4 min. Further, the “precipitation when the pH was adjusted to 7.0 with N/10 sodium hydroxide” value in data set [2] was “a precipitate formed”.
With `CCC(C)C(=O)Oc1ccc(C(O)CNC(C)(C)C)cc1OC(=O)C(C)CC.Cl` (stereo not drawn) [Example 4, 3,4-bis(2-methylbutanoyloxy)-alpha-(tert-butylaminomethyl)benzyl alcohol hydrochloride], in data set [1] (Doryl conc. 1:5 million), the ED50 is given as 0.45 mcg(base) and the “Bronchodilator Action” value is listed as 20 ± 3 min.
The corresponding values for `CC(C)(C)NCC(O)c1ccc(OC(=O)C(C)(C)C)c(OC(=O)C(C)(C)C)c1.Cl` (stereo not drawn) [Example 5, 3,4-bis(pivalyloxy)-alpha-(tert-butylaminomethyl)-benzyl alcohol hydrochloride] are 0.94 mcg(base) and 18 ± 4.2 min.
In the case of `CCC(C)CC(=O)Oc1ccc(C(O)CNC(C)(C)C)cc1OC(=O)CC(C)CC.Cl` (stereo not drawn) [Example 6, 3,4-bis(3-methylpentanoyloxy)-alpha-(tert-butylaminomethyl)benzyl alcohol hydrochloride], in data set [1] (Doryl conc. 1:5 million), the ED50 is on record as 1.3 mcg(base) and the “Bronchodilator Action” value amounted to 43 ± 3.7 min.
Take `CC(C)(C)CC(=O)Oc1ccc(C(O)CNC(C)(C)C)cc1OC(=O)CC(C)(C)C.Cl` (stereo not drawn) [Example 7, 3,4-bis(3,3-dimethylbutanoyloxy)-alpha-(tert-butylaminomethyl)benzyl alcohol hydrochloride]: in data set [1] (Doryl conc. 1:5 million), the ED50 is 23 mcg(base) and the “Bronchodilator Action” value was found to be 85 ± 17 min.
The corresponding values for `CC(C)(C)NCC(O)c1ccc(OC(=O)C2(C)CC2)c(OC(=O)C2(C)CC2)c1.Cl` (stereo not drawn) [Example 13, 3,4-bis(1-methylcyclopropanecarbonyloxy)-alpha-(tert-butylaminomethyl)benzyl alcohol hydrochloride] are 0.45 mcg(base) and 15 ± 1.7 min.
On to `CC(C)(C)NCC(O)c1ccc(OC(=O)C2CCCCC2)c(OC(=O)C2CCCCC2)c1.Cl` (stereo not drawn) [Example 15, 3,4-bis(cyclohexanecarbonyloxy)-alpha-(tert-butylaminomethyl)benzyl alcohol hydrochloride], for which, in data set [1] (Doryl conc. 1:5 million), the ED50 was 1.3 mcg(base) and the “Bronchodilator Action” value was 53 ± 7 min. In addition, the “precipitation on dilution of a 1 percent dimethyl sulfoxide solution with three volumes of water” value in data set [2] is recorded as “no precipitate formed”.
Consider `CC(C)(C)NCC(O)c1ccc(OC(=O)c2ccccc2)c(OC(=O)c2ccccc2)c1.Cl` (stereo not drawn) [Example 29, 3,4-bis(benzoyloxy)-alpha-(tert-butylaminomethyl)-benzyl alcohol hydrochloride], for which, in data set [1] (Doryl conc. 1:5 million), the ED50 is given as 1.1 mcg(base) and the “Bronchodilator Action” value was 34 ± 6.4 min. Moreover, in data set [2], the “precipitation on dilution of a 1 percent dimethyl sulfoxide solution with three volumes of water” value is recorded as “no precipitate formed” and the “precipitation on dilution of a 1 percent glycerol formal solution with three volumes of water” value was “no precipitate formed”.
For `Cc1ccc(C(=O)Oc2ccc(C(O)CNC(C)(C)C)cc2OC(=O)c2ccc(C)cc2)cc1` (stereo not drawn) [Example 30, 3,4-bis(p-toluyloxy)-alpha-(tert-butylaminomethyl)-benzyl alcohol methanesulfonate], the “Mean Decrease in Diastolic Blood Pressure in %” value in the data set on diastolic blood pressure was 2% and 11% and 11.5%.
`COc1ccc(C(=O)Oc2ccc(C(O)CNC(C)(C)C)cc2OC(=O)c2ccc(OC)cc2)cc1.Cl` (stereo not drawn) [Example 33, 3,4-bis(p-anisoyloxy)-alpha-(tert-butylaminomethyl)-benzyl alcohol hydrochloride]: in data set [1] (Doryl conc. 1:5 million), the ED50 is 6.9 mcg(base) and the “Bronchodilator Action” value came out at 32 ± 5 min. Moreover, in data set [2], the “precipitation on dilution of a 1 percent dimethyl sulfoxide solution with three volumes of water” value is “no precipitate formed” and the “precipitation on dilution of a 1 percent glycerol formal solution with three volumes of water” value is reported as “no precipitate formed”.
For the compound `CC(C)CC(=O)Oc1cc(C(O)CNC(C)(C)C)ccc1OC(=O)C(C)(C)C.Cl` (stereo not drawn) [Example 71, 3-(isovaleryloxy)-4-(pivalyloxy)-alpha-(tert-butylaminomethyl)benzyl alcohol hydrochloride], in data set [1] (Doryl conc. 1:5 million), the ED50 is 0.63 mcg(base) and the “Bronchodilator Action” value is 26 min.
Taken in the same sequence, the figures for `CCC(NC1CCCC1)C(O)c1ccc(OC(=O)CC(C)C)c(OC(=O)CC(C)C)c1.Cl` (stereo not drawn) [Example 138, 3,4-bis(isovaleryloxy)-alpha-[1-(cyclopentylamino)propyl]benzyl alcohol hydrochloride] were 0.46 mcg(base) and 25.4 ± 3.5 min.
Consider `COc1ccc(C(=O)Oc2ccc(C(O)CNC(C)(C)C)cc2OC(=O)c2ccccc2)cc1.Cl` (stereo not drawn) [Example 143, 3-benzoyloxy-4-(p-anisoyloxy)-alpha-(tert-butylaminomethyl)benzyl alcohol hydrochloride], for which, in data set [1] (Doryl conc. 1:10 million), the ED50 is 1.53 mcg(base) and the “Bronchodilator Action” value was 29.2 ± 10.2 min.
As for `CCC(NC(C)(C)C)C(O)c1ccc(OC(=O)c2ccc(C)cc2)c(OC(=O)c2ccc(C)cc2)c1` (stereo not drawn) [Example 144, 3,4-bis(p-toluyloxy)-alpha-[1-(tert-butylamino)-propyl]benzyl alcohol hydrochloride], in data set [1] (Doryl conc. 1:5 million), the “Bronchodilator Action” value amounted to 83 ± 26.8 min.
On to `COc1ccc(C(=O)Oc2ccc(C(O)CNC(C)(C)C)cc2COC(C)=O)cc1` (stereo not drawn) [Example 151, 3-(acetoxymethyl)-4-(p-anisoyloxy)-alpha-(tert-butylaminomethyl)benzyl alcohol methanesulfonate], for which the “Mean Decrease in Diastolic Blood Pressure in %” value in the data set with diastolic blood pressure turned out to be 10%.
Take `CC(C)(C)NCC(O)c1ccc(O)c(O)c1` (stereo not drawn) [Ref. Cpd. I, 3,4-Dihydroxy-alpha-(tert-butylaminomethyl)benzyl alcohol, reference compound]: in data set [1] (Doryl conc. 1:5 million), the ED50 is 0.18 mcg(base) and the “Bronchodilator Action” value is listed as 5 ± 1.4 min.
As to `CC(C)NCC(O)c1ccc(O)c(O)c1` (stereo not drawn) [Ref. Cpd. II, 3,4-Dihydroxy-alpha-(isopropylaminomethyl)benzyl alcohol, reference compound], the “Bronchodilator Action” value in data set [1] (Doryl conc. 1:5 million) amounted to 5 min.
In the case of `C[N+](C)(C)CCOC(N)=O` [carbachol, choline chloride carbamate], the “increase in the normal airway pressure or amplitude” value in the data set with normal airway pressure was 100-200%.
Still for that read-out and setting: for `NCCc1c[nH]cn1` [histamine diphosphate] the value was 100-200%.
